Converted amounts (≈) assume the structure as drawn.
Test system: P388
Assay: Cytotoxicity against mouse P388 cells
Type: functional, cell-based

Compound: COCO[C@H]1CC[C@@]2(C)[C@@H](CC=C3[C@@H]2CC[C@]2(C)[C@@H]([C@H](C)CC[C@@H](C)C(C)C)CC[C@@H]32)C1
- IC50: 2.3 mg/L (≈ 5.17 µM)

From ChEMBL document CHEMBL1151679, “A new cytotoxic sterol methoxymethyl ether from a deep water marine sponge Scleritoderma sp. cf. paccardi” (J Nat Prod, 1996)
